Test results published in paper PMC12529164, “Design, Synthesis, Structure–Activity Relationships, and Preliminary Anticancer Properties of Menthol-Modified Coumarin Esters and 3,4-Dihydrocoumarin Derivatives” (ACS Omega, 2025).
Where “and” joins values, the source holds several entries; their conditions need not be identical. Equal entries are not always repeated. Where two headings read alike, the source gives them in different places.

Key:
MDA-MB-231 = test: MTT cytotoxicity assay; type: cell-based, human
Experimental: (§1) The human primary (SW480) and metastatic (SW620) colon cancer, metastatic prostate cancer (PC3), breast adenocarcinoma (MDA-MB-231) and human immortal keratinocyte (HaCaT) cell lines were recruited from the American Type Culture Collection (ATCC). The cells were cultured in the recommended medium according to protocols (RPMI 1640 for PC3, MEM for SW480 and SW620, as well as DMEM for MDA-MB-231 and HaCaT cells) with addition of 10% FBS, penicillin (100 U/mL), and streptomycin (100 μg/mL) and cultured in 37 °C/5% CO2 in a humidified incubator. Then, the cells were passaged at a confluence of 80–90% by a treatment with 0.25% trypsin (Gibco Life Technologies) and used for studies.
(§2) They were added to 96-well plates with seeded normal and cancer cells (1 × 10^4 cells per well) and incubated for 72 h. MTT analysis was performed according to a previous study.

PC3 [1] = test: MTT cytotoxicity assay; type: cell-based, human
Experimental: as §1, §2

SW480 [2] = test: MTT cytotoxicity assay; type: cell-based, human
Experimental: as §1, §2

SW620 [3] = test: MTT cytotoxicity assay; type: cell-based, human
Experimental: as §1, §2

[4] = tested on: tested cancer cell lines (SW480, SW620, PC3, MDA-MB-231); test: MTT assay, mean over tested cancer cell lines; type: cell-based; conditions: Homo sapiens, mean of the four cancer cell lines
Experimental: They were added to 96-well plates with seeded normal and cancer cells (1 × 10^4 cells per well) and incubated for 72 h. MTT analysis was performed according to a previous study. […]

Trypan blue assay = type: cell-based, human; conditions: human, HaCaT cells, compound at IC50, 72 h, mean
Experimental: (§3) The total cell count was assessed by trypan blue exclusion dye assay using automated cell counter (Countess Invitrogen). Untreated cells were used as the control. Each experiment was repeated 5 times.

HaCaT [5] = test: Trypan blue assay; type: cell-based, human; conditions: compound at IC50, 72 h
Experimental: as §3

PC3 [6] = test: Trypan blue assay; type: cell-based, human; conditions: PC3, compound at IC50, 72 h
Experimental: as §3

SW480 [7] = test: Trypan blue assay; type: cell-based, human; conditions: SW480, compound at IC50, 72 h
Experimental: as §3

SW620 [8] = test: Trypan blue assay; type: cell-based, human; conditions: SW620, compound at IC50, 72 h
Experimental: as §3

HaCaT [9] = test: Annexin V-FITC/PI flow cytometry; type: cell-based, human; conditions: compound at IC50, 72 h, mean
Experimental: (§4) The apoptotic and necrotic cells treated with derivatives 2b, 4a, 4b were detected using FITC Annexin V Apoptosis Detection Kit I (BD Biosciences Pharmingen). Briefly, cells (2 × 10^5 cells/well) were seeded in 6-well plates in supplemented medium. […] Then cells were harvested, washed, and labeled with Annexin V-FITC and propidium iodide (PI) according to the manufacturer’s protocol. The stained cells were analyzed by flow cytometry. The cells were identified as early apoptotic (Annexin V+/PI−) or late apoptotic/necrotic (Annexin V+/PI+).

PC3 [10] = test: Annexin V-FITC/PI flow cytometry; type: cell-based, human; conditions: PC3, compound at IC50, 72 h, mean
Experimental: as §4

SW480 [11] = test: Annexin V-FITC/PI flow cytometry; type: cell-based, human; conditions: SW480, compound at IC50, 72 h, mean
Experimental: as §4

SW620 [12] = test: Annexin V-FITC/PI flow cytometry; type: cell-based, human; conditions: SW620, compound at IC50, 72 h
Experimental: as §4

Danio rerio larvae = test: In vivo toxicity, maximum tolerated concentration; conditions: zebrafish larvae, immersion from 96 hpf for 18 h (120 hpf), 5-150 μM tested
Experimental: Zebrafish (Danio rerio, strain AB) was maintained at the Experimental Medicine Center, Medical University of Lublin, Poland. Embryos and larvae up to 120 h postfertilization (hpf) were kept under generally accepted environmental conditions, i.e., in incubators at 28.5 °C, with 14/10 h light/dark cycles. The embryos of the Zebrafish were harvested after the natural reproduction process.
Three compounds showing low IC50 values determined on cancer lines in in vitro tests (2b, 4a) and compound 1a characterized by low cytotoxicity were used for in vivo tests. We also conducted research for coumarin. These compounds were dissolved in dimethyl sulfoxide (DMSO) (Sigma-Aldrich, St. Louis, MO, USA) and diluted in the zebrafish medium (pH 7.1–7.3; 5.0 mM NaCl, 0.17 mM KCl, 0.33 mM CaCl2, 0.33 mM MgSO4) to achieve a final DMSO concentration of 1% w/v. Twenty-four hpf zebrafish embryos were investigated under a light microscope, and […] fertilized embryos (n = 60) were selected and transferred into 48-well plates (5 embryos per well). Larvae were incubated in 1 mL of the zebrafish medium for up to 3 days after fertilization.
On the fourth day postfertilization (96 hpf), the larvae (10 individuals per group) were incubated in solutions of coumarin or its three derivatives (1a, 2b, 4a) at selected concentrations (5, 10, 25, 50, 75, 100, 150 μM), along with control solutions: negative control (zebrafish medium) and solvent control (1% DMSO in zebrafish medium). The maximum tolerated concentration (MTC) was calculated to assess the toxicity of the compounds and extracts. […] Larvae were individually inspected under a microscope for signs of acute locomotor dysfunction, including a weak reaction to light tail stimulation with a fine needle, disrupted posture, body deformities, protruding eyes, slowed or absent heartbeat, and mortality.

[13] = SI = IC50 for normal cell line (HaCaT)/IC50 cancer cell line

In the case of CC(C)[C@@H]1CC[C@@H](C)C[C@H]1OC(=O)C1C(=O)Oc2ccccc2C1P(=O)(c1ccccc1)c1ccccc1 (mixture of isomers) [Compound 4a, (1R,2S,5R)-2-Isopropyl-5-methylcyclohexyl-4-(diphenylphosphoryl)-2-oxochromane-3-carboxylate], the IC50 (MDA-MB-231; MDA-MB-231, MTT, 72 h, human breast adenocarcinoma) is reported as 25.3 ± 4.59 µM, the “SI MDA-MB-231” value (MDA-MB-231; [13]) is reported as 0.60 and the IC50 (PC3 [1]; PC-3, MTT, 72 h, human metastatic prostate cancer) is reported as 9.8 ± 2.02 µM. For the same compound, the “SI PC3” value (PC3 [1]; [13]) was 1.53, the “SI SW480” value (SW480 [2]; [13]) was 3.28 and the IC50 (SW480 [2]; SW480, MTT, 72 h, human primary colon cancer) was 4.6 ± 1.01 µM. For the same compound, the “SI SW620” value (SW620 [3]; [13]) was 2.21, the IC50 (SW620 [3]; SW-620, MTT, 72 h, human metastatic colon cancer) was 6.8 ± 0.55 µM and the IC50 ([4]; Table S7, >100 entered as 100, read-out: mean anticancer IC50) was 11.6 µM. For the same compound, the IC50 ([4]; read-out: average IC50 against tested cancer cell lines) was 11.6 µM, the viability at 72 h (Trypan blue assay) was 96% and the cell number (HaCaT [5]; mean) was 4.26 x106. For the same compound, the “reduction of number of cells” value (HaCaT [5]; vs control) was 31.9%, the cell number (PC3 [6]; mean) was 2.5 x106 and the “viability (%)” value (PC3 [6]; mean) was 94.33%. The “reduction of number of live cells” value (PC3 [6]; vs control) was 62.1%, the cell number (SW480 [7]; mean) was 0.72 x106 and the “viability (%)” value (SW480 [7]; mean) was 93.66%. For the same compound, the “reduction of number of live cells” value (SW480 [7]; vs control) was 79.9%, the cell number (SW620 [8]; mean) was 1.86 x106 and the “viability (%)” value (SW620 [8]; mean) was 98%. For the same compound, the “reduction of number of live cells” value (SW620 [8]; vs control) was 47.6%, the “Early apoptosis [%]” value (HaCaT [9]) was 8.90% and the “Late apoptosis [%]” value (HaCaT [9]) was 3.40%. For the same compound, the “Necrosis [%]” value (HaCaT [9]) was 0.08%, the “Early apoptosis [%]” value (PC3 [10]) was 48.3% and the “Late apoptosis [%]” value (PC3 [10]) was 44.75% and 44.8%. The “Necrosis [%]” value (PC3 [10]) was 0.65%, the “Early apoptosis [%]” value (SW480 [11]) was 1.95% and the “Late apoptosis [%]” value (SW480 [11]) was 48.95%. The “Necrosis [%]” value (SW480 [11]) was 1.80%, the “Early apoptosis [%]” value (SW620 [12]; mean) was 11.75% and the “Late apoptosis [%]” value (SW620 [12]; mean) was 8.80%. The “Necrosis [%]” value (SW620 [12]; mean) was 1.45%, the “both late apoptosis and necrosis” value (SW620 [12]; sum) was 10.25% and the “maximum tolerated concentration (MTC)” value (Danio rerio larvae) was 75 µM.
